Laboratory results from patent publication US9051265B2, “N-benzylindole modulators of PPARG” (The Scripps Research Institute, priority 2011, dated 2015).

System: PPARG (murine PPARg2 or full-length human PPARg)
Experiment: Cell-based PPRE-luciferase transactivation assay in COS-1 cells

SMILES: CN(CCOc1ccc(CC2SC(=O)NC2=O)cc1)c1ccccn1 (stereo not shown) [rosiglitazone]
- activation of the PPRE reporter: about 5 fold
